{"source": "patent US6914045B2", "about": "“Glycopeptide antibiotics” (Wyeth Holdings Corporation, priority 2001, dated 2005)", "assay_in_all_cases": "in vitro antibacterial evaluation, MIC by broth dilution", "assay_type_in_all_cases": "cell-based", "key": {"Escherichia coli": {"tested_on": "Escherichia coli", "conditions": "18 hours at 35° C.", "how_it_was_run": "(§1)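 Broth dilution per NCCLS standard M7-A2 in Muller-Hinton II […], with an inoculum of 5×10^5 CFU/mL and antibiotic spanning 64-0.06 μg/mL. The MIC is the lowest concentration that inhibits growth of the organism.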"}, "Streptococcus sp.": {"tested_on": "Streptococcus sp.", "conditions": "broth dilution, 18 hours at 35° C.", "how_it_was_run": "as §1"}, "Enterococcus sp.": {"tested_on": "Enterococcus sp.", "conditions": "broth dilution, 18 hours at 35° C.", "how_it_was_run": "as §1"}, "Staphylococcus sp.": {"tested_on": "Staphylococcus sp.", "conditions": "broth dilution, 18 hours at 35° C.", "how_it_was_run": "as §1"}}}
{"smiles": "CC(c1ccccc1)C1NC(=O)CNC(=O)C(CO)NC(=O)C(C(O)C2CNC(=N)N2C2OC(CO)C(O)C(O)C2O)NC(=O)C(C(O)C2CNC(=N)N2)NC(=O)C(Cc2ccc(OC3OC(CO)C(OC4OC(CO)C(O)C5OC(c6ccccc6)OC45)C(O)C3O)cc2)NC1=O", "note": "(single isomer, unassigned) [Example 104b, Cyclo[glycyl-β-methylphenylalanyl-O-[4-O-(2,3-O-benzylidenehexopyranosyl)hexopyranosyl]-tyrosyl-3-(2-iminoimidazolidin-4-yl)seryl-3-(3-hexopyranosyl-2-iminoimidazolidin-4-yl)-serylseryl]]", "values": [{"measurement": "MIC Escherichia coli (ATCC 25922)", "setting": "Escherichia coli; strain ATCC 25922", "result": ">0.5", "unit": "µg/mL"}, {"measurement": "MIC Escherichia coli (GC 4559)", "setting": "Escherichia coli; strain GC 4559", "result": ">0.5", "unit": "µg/mL"}, {"measurement": "MIC Escherichia coli (GC 4560)", "setting": "Escherichia coli; strain GC 4560", "result": 0.5, "unit": "µg/mL"}, {"measurement": "MIC Streptococcus agalactiae (GC 4564)", "setting": "Streptococcus sp.; Streptococcus agalactiae (GC 4564)", "result": 0.5, "unit": "µg/mL"}, {"measurement": "MIC Streptococcus pneumoniae (ATCC 6301)", "setting": "Streptococcus sp.; Streptococcus pneumoniae (ATCC 6301)", "result": 0.12, "unit": "µg/mL"}, {"measurement": "MIC Streptococcus pneumoniae (GC 1894)", "setting": "Streptococcus sp.; Streptococcus pneumoniae (GC 1894)", "result": 0.12, "unit": "µg/mL"}, {"measurement": "MIC Streptococcus pneumoniae (GC 4565)", "setting": "Streptococcus sp.; Streptococcus pneumoniae (GC 4565)", "result": 0.12, "unit": "µg/mL"}, {"measurement": "MIC Streptococcus pyogenes (GC 4563)", "setting": "Streptococcus sp.; Streptococcus pyogenes (GC 4563)", "result": 0.12, "unit": "µg/mL"}, {"measurement": "MIC Streptococcus pneumoniae (ATCC 6301)", "setting": "Streptococcus sp.; strain ATCC 6301", "result": 0.12, "unit": "µg/mL"}, {"measurement": "MIC Streptococcus pneumoniae (GC 1894)", "setting": "Streptococcus sp.; strain GC 1894", "result": 0.12, "unit": "µg/mL"}, {"measurement": "MIC Streptococcus pyogenes (GC 4563)", "setting": "Streptococcus sp.; strain GC 4563", "result": 0.12, "unit": "µg/mL"}, {"measurement": "MIC Streptococcus agalactiae (GC 4564)", "setting": "Streptococcus sp.; strain GC 4564", "result": 0.5, "unit": "µg/mL"}, {"measurement": "MIC Streptococcus pneumoniae (GC 4565)", "setting": "Streptococcus sp.; strain GC 4565", "result": 0.12, "unit": "µg/mL"}, {"measurement": "MIC Enterococcus avium (GC 4558)", "setting": "Enterococcus sp.; Enterococcus avium (GC 4558)", "result": 0.5, "unit": "µg/mL"}, {"measurement": "MIC Enterococcus faecalis (ATCC 29212)", "setting": "Enterococcus sp.; Enterococcus faecalis (ATCC 29212)", "result": 0.5, "unit": "µg/mL"}, {"measurement": "MIC Enterococcus faecalis (GC 2242)", "setting": "Enterococcus sp.; Enterococcus faecalis (GC 2242)", "result": 0.5, "unit": "µg/mL"}, {"measurement": "MIC Enterococcus faecalis (GC 2691)", "setting": "Enterococcus sp.; Enterococcus faecalis (GC 2691)", "result": 0.5, "unit": "µg/mL"}, {"measurement": "MIC Enterococcus faecalis (GC 3059)", "setting": "Enterococcus sp.; Enterococcus faecalis (GC 3059)", "result": 0.5, "unit": "µg/mL"}, {"measurement": "MIC Enterococcus faecalis (GC 4552)", "setting": "Enterococcus sp.; Enterococcus faecalis (GC 4552)", "result": 0.5, "unit": "µg/mL"}, {"measurement": "MIC Enterococcus faecalis (GC 4553)", "setting": "Enterococcus sp.; Enterococcus faecalis (GC 4553)", "result": 0.5, "unit": "µg/mL"}, {"measurement": "MIC Enterococcus faecalis (GC 4554)", "setting": "Enterococcus sp.; Enterococcus faecalis (GC 4554)", "result": 0.5, "unit": "µg/mL"}, {"measurement": "MIC Enterococcus faecalis (GC 6189)", "setting": "Enterococcus sp.; Enterococcus faecalis (GC 6189)", "result": 0.5, "unit": "µg/mL"}, {"measurement": "MIC Enterococcus faecium (GC 2243)", "setting": "Enterococcus sp.; Enterococcus faecium (GC 2243)", "result": 0.5, "unit": "µg/mL"}, {"measurement": "MIC Enterococcus faecium (GC 4556)", "setting": "Enterococcus sp.; Enterococcus faecium (GC 4556)", "result": 0.5, "unit": "µg/mL"}, {"measurement": "MIC Enterococcus faecium (GC 4557)", "setting": "Enterococcus sp.; Enterococcus faecium (GC 4557)", "result": 0.5, "unit": "µg/mL"}, {"measurement": "MIC Enterococcus faecalis (ATCC 29212)", "setting": "Enterococcus sp.; strain ATCC 29212", "result": 0.5, "unit": "µg/mL"}, {"measurement": "MIC Enterococcus faecalis (GC 2242)", "setting": "Enterococcus sp.; strain GC 2242", "result": 0.5, "unit": "µg/mL"}, {"measurement": "MIC Enterococcus faecium (GC 2243)", "setting": "Enterococcus sp.; strain GC 2243", "result": 0.5, "unit": "µg/mL"}, {"measurement": "MIC Enterococcus faecalis (GC 2691)", "setting": "Enterococcus sp.; strain GC 2691", "result": 0.5, "unit": "µg/mL"}, {"measurement": "MIC Enterococcus faecalis (GC 3059)", "setting": "Enterococcus sp.; strain GC 3059", "result": 0.5, "unit": "µg/mL"}, {"measurement": "MIC Enterococcus faecalis (GC 4552)", "setting": "Enterococcus sp.; strain GC 4552", "result": 0.5, "unit": "µg/mL"}, {"measurement": "MIC Enterococcus faecalis (GC 4553)", "setting": "Enterococcus sp.; strain GC 4553", "result": 0.5, "unit": "µg/mL"}, {"measurement": "MIC Enterococcus faecalis (GC 4554)", "setting": "Enterococcus sp.; strain GC 4554", "result": 0.5, "unit": "µg/mL"}, {"measurement": "MIC Enterococcus faecium (GC 4556)", "setting": "Enterococcus sp.; strain GC 4556", "result": 0.5, "unit": "µg/mL"}, {"measurement": "MIC Enterococcus faecium (GC 4557)", "setting": "Enterococcus sp.; strain GC 4557", "result": 0.5, "unit": "µg/mL"}, {"measurement": "MIC Enterococcus avium (GC 4558)", "setting": "Enterococcus sp.; strain GC 4558", "result": 0.5, "unit": "µg/mL"}, {"measurement": "MIC Enterococcus faecalis (GC 6189)", "setting": "Enterococcus sp.; strain GC 6189", "result": 0.5, "unit": "µg/mL"}, {"measurement": "MIC Coagulase Negative Staphylococcus (GC 4547)", "setting": "Staphylococcus sp.", "result": 4, "unit": "µg/mL"}, {"measurement": "MIC Coagulase Negative Staphylococcus (GC 4548)", "setting": "Staphylococcus sp.", "result": 4, "unit": "µg/mL"}, {"measurement": "MIC Coagulase Negative Staphylococcus (GC 4549)", "setting": "Staphylococcus sp.", "result": 4, "unit": "µg/mL"}, {"measurement": "MIC Coagulase Negative Staphylococcus (GC 4551)", "setting": "Staphylococcus sp.", "result": 8, "unit": "µg/mL"}, {"measurement": "MIC Coagulase Negative Staphylococcus (GC 6257)", "setting": "Staphylococcus sp.", "result": 2, "unit": "µg/mL"}, {"measurement": "MIC Staphylococcus aureus (ATCC 29213)", "setting": "Staphylococcus sp.", "result": 0.5, "unit": "µg/mL"}, {"measurement": "MIC Staphylococcus aureus (GC 1131)", "setting": "Staphylococcus sp.", "result": 0.5, "unit": "µg/mL"}, {"measurement": "MIC Staphylococcus aureus (GC 3051)", "setting": "Staphylococcus sp.", "result": 0.5, "unit": "µg/mL"}, {"measurement": "MIC Staphylococcus aureus (GC 3053)", "setting": "Staphylococcus sp.", "result": 0.5, "unit": "µg/mL"}, {"measurement": "MIC Staphylococcus aureus (GC 4541)", "setting": "Staphylococcus sp.", "result": 0.5, "unit": "µg/mL"}, {"measurement": "MIC Staphylococcus aureus (GC 4542)", "setting": "Staphylococcus sp.", "result": 0.5, "unit": "µg/mL"}, {"measurement": "MIC Staphylococcus aureus (GC 4544)", "setting": "Staphylococcus sp.", "result": 0.5, "unit": "µg/mL"}, {"measurement": "MIC Staphylococcus aureus (GC 4545)", "setting": "Staphylococcus sp.", "result": 0.5, "unit": "µg/mL"}, {"measurement": "MIC Staphylococcus aureus-SMITH (GC 4543)", "setting": "Staphylococcus sp.", "result": 0.5, "unit": "µg/mL"}, {"measurement": "MIC Staphylococcus haemolyticus (GC 4546)", "setting": "Staphylococcus sp.", "result": 0.5, "unit": "µg/mL"}, {"measurement": "MIC Staphylococcus haemolyticus (GC 4546)", "setting": "Staphylococcus sp.; strain GC 4546", "result": 0.5, "unit": "µg/mL"}, {"measurement": "MIC Coagulase Negative Staphylococcus (GC 4547)", "setting": "Staphylococcus sp.; strain GC 4547", "result": 4, "unit": "µg/mL"}, {"measurement": "MIC Coagulase Negative Staphylococcus (GC 4548)", "setting": "Staphylococcus sp.; strain GC 4548", "result": 4, "unit": "µg/mL"}, {"measurement": "MIC Coagulase Negative Staphylococcus (GC 4549)", "setting": "Staphylococcus sp.; strain GC 4549", "result": 4, "unit": "µg/mL"}, {"measurement": "MIC Coagulase Negative Staphylococcus (GC 4551)", "setting": "Staphylococcus sp.; strain GC 4551", "result": 8, "unit": "µg/mL"}, {"measurement": "MIC Coagulase Negative Staphylococcus (GC 6257)", "setting": "Staphylococcus sp.; strain GC 6257", "result": 2, "unit": "µg/mL"}, {"measurement": "MIC Staphylococcus aureus-SMITH (GC 4543)", "setting": "Staphylococcus sp.; strain SMITH GC 4543", "result": 0.5, "unit": "µg/mL"}, {"measurement": "MIC Staphylococcus aureus (ATCC 29213)", "setting": "Staphylococcus sp.; strain ATCC 29213", "result": 0.5, "unit": "µg/mL"}, {"measurement": "MIC Staphylococcus aureus (GC 1131)", "setting": "Staphylococcus sp.; strain GC 1131", "result": 0.5, "unit": "µg/mL"}, {"measurement": "MIC Staphylococcus aureus (GC 3051)", "setting": "Staphylococcus sp.; strain GC 3051", "result": 0.5, "unit": "µg/mL"}, {"measurement": "MIC Staphylococcus aureus (GC 3053)", "setting": "Staphylococcus sp.; strain GC 3053", "result": 0.5, "unit": "µg/mL"}, {"measurement": "MIC Staphylococcus aureus (GC 4541)", "setting": "Staphylococcus sp.; strain GC 4541", "result": 0.5, "unit": "µg/mL"}, {"measurement": "MIC Staphylococcus aureus (GC 4542)", "setting": "Staphylococcus sp.; strain GC 4542", "result": 0.5, "unit": "µg/mL"}, {"measurement": "MIC Staphylococcus aureus (GC 4544)", "setting": "Staphylococcus sp.; strain GC 4544", "result": 0.5, "unit": "µg/mL"}, {"measurement": "MIC Staphylococcus aureus (GC 4545)", "setting": "Staphylococcus sp.; strain GC 4545", "result": 0.5, "unit": "µg/mL"}]}
